Data published in patent US20070219243A1, “Method for improving the pharmacokinetics of HIV integrase inhibitors” (priority 2005, published 2007).

Experiments:
CYP3A (hepatic) = test: Example 3: IV midazolam probe for CYP3A activity at a range of RTV doses; settings: human, plasma, iv, probe midazolam; for AUC(0-inf): AUCinf (mean); for clearance: CL (mean); for half-life: Half-life (mean)
Experimental: (§1) The effects of a range of RTV doses (20, 50, 100, and 200 mg once daily) on hepatic cytochrome P450 3A (CYP3A) activity were also evaluated using a CYP3A substrate.
(§2) For MDZ: AUC0-last, AUCinf, % AUCexp, Clast, Tlast, λ, T1/2, CL and Vz.
(§3) The population mean slope was estimated along with a corresponding 90% CI. This study was performed in compliance with the guidelines of Good Clinical Practices (GCPs).

[1] = tested on: hepatic cytochrome P450 3A (CYP3A) activity; test: as above
Experimental: as §1, §2, §3

[2] = Example 1: pharmacokinetics of Compound 1 alone and with RTV in healthy subjects; format: in vivo, human
Text: The study was an open-label, fixed-sequence, crossover, pharmacokinetic study with 12 subjects. The subjects were healthy males and non-pregnant, nonlactating females between 18 and 45 years of age, inclusive. The duration of the study was 20 days, with Period 1 of Days 1 to 10 and Period 2 of days 11 to 20. Follow-up contact was on day 27.

[3] = both, human, in vivo
[4] = Example 3: pharmacokinetics of Compound 1 and RTV at a range of RTV doses; settings: RTV in plasma, mean (CV %); for AUC / Cmax / half-life: both, human; for AUC: AUCtau
[5] = Example 5: drug-drug interaction of zidovudine and Compound 1/r
Text: (§4) Zidovudine is a NRTI used in HIV patients.
(§5) PK parameters were estimated using WinNonlin™ 5.0.1 (Pharsight Corporation, Mountain View, Calif., USA).

[6] = Example 5: safety of zidovudine and Compound 1/r; format: in vivo, human
Text: as §4, §5

[7] = plasma, oral, Compound 1 125 mg + 20 mg RTV QD
[8] = plasma, oral, Compound 1 125 mg + 50 mg RTV QD
[9] = plasma, oral, Compound 1 125 mg + 200 mg RTV QD

Cc1ncc2n1-c1ccc(Cl)cc1C(c1ccccc1F)=NC2 [MDZ, midazolam]
AUC(0-inf) (CYP3A (hepatic); 1 mg, MDZ 1 mg IV alone, Day 1): 31 ng·h/mL
clearance (CYP3A (hepatic); 1 mg, MDZ 1 mg IV alone): 7.45 mL/min/kg
half-life (CYP3A (hepatic); 1 mg, MDZ 1 mg IV alone): 3.97 h
AUC(0-inf) (CYP3A (hepatic); MDZ 1 mg IV, +20 mg RTV QD (with Compound 1 125 mg)): 101 ng·h/mL
AUC(0-inf) (CYP3A (hepatic); MDZ 1 mg IV, +50 mg RTV QD (with Compound 1 125 mg)): 145 ng·h/mL
AUC(0-inf) (CYP3A (hepatic); MDZ 1 mg IV, +100 mg RTV QD (with Compound 1 125 mg)): 219 ng·h/mL
AUC(0-inf) (CYP3A (hepatic); MDZ 1 mg IV, +200 mg RTV QD (with Compound 1 125 mg)): 146 ng·h/mL
clearance (CYP3A (hepatic); MDZ 1 mg IV, +20 mg RTV): 2.38 mL/min/kg
clearance (CYP3A (hepatic); MDZ 1 mg IV, +50 mg RTV): 1.5 mL/min/kg
clearance (CYP3A (hepatic); MDZ 1 mg IV, +100 mg RTV): 1.2 mL/min/kg
clearance (CYP3A (hepatic); MDZ 1 mg IV, +200 mg RTV): 1.45 mL/min/kg
half-life (CYP3A (hepatic); MDZ 1 mg IV, +20 mg RTV): 7.83 h
half-life (CYP3A (hepatic); MDZ 1 mg IV, +50 mg RTV): 14.4 h
half-life (CYP3A (hepatic); MDZ 1 mg IV, +100 mg RTV): 22.4 h
half-life (CYP3A (hepatic); MDZ 1 mg IV, +200 mg RTV): 15.2 h
Clast (mean) ([1]; MDZ 1 mg IV alone): 0.20 ng/mL
Clast (mean) ([1]; MDZ 1 mg IV, +20 mg RTV): 1.53 ng/mL
Clast (mean) ([1]; MDZ 1 mg IV, +50 mg RTV): 2.51 ng/mL
Clast (mean) ([1]; MDZ 1 mg IV, +100 mg RTV): 3.34 ng/mL
Clast (mean) ([1]; MDZ 1 mg IV, +200 mg RTV): 2.58 ng/mL

CC(C)c1nc(CN(C)C(=O)N[C@H](C(=O)N[C@@H](Cc2ccccc2)C[C@H](O)[C@H](Cc2ccccc2)NC(=O)OCc2cncs2)C(C)C)cs1 [Ritonavir, (2S,3S,5S)-5-(N-(N-((N-Methyl-N-((2-isopropyl-4-thiazolyl)methyl)amino)-carbonyl)-L-valinyl)amino)-2-(N-((5-thiazolyl)methoxycarbonyl)amino)-1,6-diphenyl-3-hydroxyhexane, reference compound]
half-life ([2]; both sexes, human, plasma, oral, 100 mg, ritonavir in plasma, Day 11, single dose RTV 100 mg with Compound 1, median): 5.1 h
AUC(0-inf) ([2]; both sexes, human, plasma, oral, 100 mg, read-out: AUC (AUCinf)): 4980 ng·h/mL
AUC ([2]; both sexes, human, plasma, oral, ritonavir in plasma, Day 20, RTV 100 mg + Compound 1 100 mg twice daily, mean, read-out: AUC (AUCtau)): 9400 ng·h/mL
Ctau ([2]; ritonavir in plasma, Day 11, single dose RTV 100 mg with Compound 1, mean): 219.8 ng/mL
Ctau ([2]; ritonavir in plasma, Day 20, RTV 100 mg + Compound 1 100 mg twice daily, mean): 544.8 ng/mL
Dose proportionality of RTV exposures [3]: RTV exposures not dose-proportional, very low exposures at 20 mg with BLQ concentrations (<0.5 ng/ml) by 16 hr in some subjects
Ctau ([4]; Compound 1 125 mg + 20 mg RTV QD): 0.718 (98.8) ng/ml
Ctau ([4]; Compound 1 125 mg + 50 mg RTV QD): 11.6 (66.2) ng/ml
Ctau ([4]; Compound 1 125 mg + 100 mg RTV QD): 53.8 (41.6) ng/ml
Ctau ([4]; Compound 1 125 mg + 200 mg RTV QD): 78.5 (36.7) ng/ml
AUC ([4]; in vivo, Compound 1 125 mg + 100 mg RTV QD): 6550 ng·h/mL
AUC [4, 7]: 135 ng·h/mL
AUC [4, 8]: 1120 ng·h/mL
AUC [4, 9]: 16000 ng·h/mL
Cmax [4, 7]: 19.5 ng/mL
Cmax [4, 8]: 130 ng/mL
Cmax [4, 9]: 2460 ng/mL
half-life [4, 7]: 4.74 h
half-life [4, 8]: 6.54 h
half-life ([4]; plasma, oral, Compound 1 125 mg + 100 mg RTV QD): 6.34 h
half-life [4, 9]: 5.71 h

Cc1cn([C@H]2C[C@H](N=[N+]=[N-])[C@@H](CO)O2)c(=O)[nH]c1=O [ZDV, zidovudine]
AUCtau, Cmax, Ctau (Compound 1 only) 90% CI of GMR (co-administration: alone) ([5]; Compound 1/r 200/100 mg QD + ZDV 300 mg BID, with a meal, bounds 70% to 143%): within predefined PK equivalence bounds
Pharmacokinetic drug-drug interaction ([5]; in vivo): no clinically relevant pharmacokinetic drug-drug interaction
Tolerability ([6]; Compound 1/r 200/100 mg QD and ZDV 300 mg BID, alone and in combination): generally well tolerated
Safety of co-administration ([6]; zidovudine co-administered with Compound 1/r): safe and well tolerated
